Data on one molecule can be found in patent US20180028526A1, “NALMEFENE FOR REDUCTION OF ALCOHOL CONSUMPTION IN SPECIFIC TARGET POPULATIONS” (H. Lundbeck A/S, priority 2012, published 2018).

The subject of test [1] is alcohol dependence. The following applies: 20 mg taken when the patient experienced a craving for alcohol; Karhuvaara et al. 2007; cited from earlier work.
Test [2] relates to alcohol dependence. Particulars: 5, 20 and 40 mg daily doses; Anton et al. 2004; cited from earlier work.
The test system of test [3] is patients with alcohol dependence. Description: Studies 12014A, 12023A and 12013A taken together (statements on all three studies). Particulars: for Difference between nalmefene and placebo in HDDs and TAC, compared with total study population: all three studies. It is filed as in vivo, human. From the text:
The efficacy of nalmefene in the reduction of alcohol consumption in patients with alcohol dependence (DSM-IV) has been evaluated in two efficacy studies (Study 12014A and Study 12023A) and one safety study (Study 12013A) as described in the examples. All three studies were randomized, double blind, parallel-group and placebo-controlled.
The studies included outpatients, aged […], with a primary diagnosis of alcohol dependence. A patient was eligible for participation in the study if, in the 4 weeks preceding the Screening Visit (Baseline period), he/she had >6 HDDs, at least a medium DRL (calculated as mean daily alcohol consumption in g/day i.e. >40 g/day for men and >20 g/day for women calculated as mean daily alcohol consumption over the 4 week period preceding the screening visit), and ≦14 consecutive abstinent days. The timeline followback (TLFB) method was used to obtain estimates of the patient's daily drinking.
At the initial visit (screening visit), the patients' clinical status, social situation, and alcohol consumption pattern were evaluated. After a 1- to 2-week observation period the drinking risk level was re-assessed by calculating mean daily alcohol consumption in g/day over the 1- to 2-week observation period, and treatment with nalmefene was initiated together with counseling with focus on motivating the patients to adhere to the treatment and to change their drinking behavior.
The efficacy of nalmefene was measured using two co-primary endpoints: the change in the monthly number of heavy drinking days (HDDs) and the change in the mean daily total alcohol consumption (TAC) per month (=28 days).
The efficacy of nalmefene on the reduction of alcohol consumption in patients with alcohol dependence (DSM-IV) was evaluated in two efficacy studies (Study 12014A and Study 12023A). Both studies were randomised, double blind, two-parallel group, placebo controlled, and after 6 months of treatment, patients receiving nalmefene were re-randomised to receive either placebo or nalmefene in a 1 month run out period. The efficacy of nalmefene was also evaluated in a randomised, double blind, two parallel group, placebo controlled 1 year safety study (Study 12013A). The studies included 1941 patients, 1144 of whom were treated with nalmefene 18 mg in an as-needed dosing regimen.
The efficacy of nalmefene was measured using two co-primary endpoints: the change in the monthly number of heavy drinking days (HDDs) and the change in the mean daily total alcohol consumption (TAC) per month (=28 days). A HDD was defined as a day with a consumption ≧60 g alcohol for men and 40 g for women. The change in HDD and TAC over time in patients treated with nalmefene or placebo is furthermore reflected in FIGS. 1a and 1b-12a and 12b.

The test system of test [4] is alcohol dependence. Particulars: 20 to 80 mg daily oral dosing; double-blind, placebo-controlled; Mason et al. 1999; cited from earlier work.

SMILES strings stand for the structures.

In the case of `C=C1CC[C@@]2(O)[C@H]3Cc4ccc(O)c5c4[C@@]2(CCN3CC2CC2)[C@H]1O5` [nalmefene, 17-(cyclopropylmethyl)-4,5-alpha-epoxy-6-methylenemorphinan-3,14-diol], the “Effect over placebo in the management of alcohol dependence” value in the test with alcohol dependence [1] is recorded as “good effect”. Moreover, the “Superiority over placebo in the management of alcohol dependence” value in the test on alcohol dependence [2] is on record as “no evidence of superiority”. Further, the “Difference between nalmefene and placebo in HDDs and TAC, compared with total study population” value in test [3] (patients excluding ERs) is listed as “more pronounced”; in test [3] (patients with High DRL at baseline) it was “more pronounced”; in test [3] (patients with High DRL at baseline and randomization) it was “more pronounced”. Moreover, the “Reducing the number of HDDs and TAC versus placebo” value in test [3] (month 6, two 6 month efficacy studies and 12 month safety study, total study population) is listed as “superior to placebo”. Moreover, the “Effect in the management of alcohol dependence” value in the test on alcohol dependence [4] was “good effect”.
